# Source: ChEMBL document CHEMBL6074674, “Development of Novel Silicon-Based Hydrophobic Tags (SiHyT) for Targeted Proteins Degradation” (J Med Chem, 2024)
# Activity calls are given as the source filed them. No cut-off for these calls is given here.
# What was measured:
# [1] = test system: PC-9; experiment: Induction of interaction between RNF149/EGFR mutant in human PC-9 cells assessed as disruption of EGFR mutant/HSP90 complex formation at 2 uM measured after 6 hrs by co-immunoprecipitation analysis; assay type: cell-based
# [2] = test system: PC-9; experiment: Induction of interaction between RNF149/EGFR mutant in human PC-9 cells by pull-down based LC-MS/MS analysis; assay type: cell-based
# [3] = Half life in ICR mouse at 10 mg/kg, po by LC-MS/MS analysis; assay type: ADME, organism-based; conditions: in vivo
# [4] = Cmax in ICR mouse at 10 mg/kg, po by LC-MS/MS analysis; assay type: ADME, organism-based; conditions: in vivo
# [5] = test system: PC-9; experiment: SiHyT-mediated degrader activity at RNF149/EGFR mutant in human PC-9 cells assessed as induction of EGFR degradation at 1 uM in presence of HSP90 inhibitor, geldanamycin by western blot analysis; assay type: cell-based
# [6] = test system: MCF-10A; experiment: Cytotoxicity against human MCF-10A cells assessed as reduction in cell viability; assay type: toxicity, cell-based
# [7] = test system: HCC827; experiment: Antiproliferative activity against human HCC827 cells assessed as decrease in cell survival measured after 72 hrs by CCK-8 assay; assay type: functional, cell-based; conditions: HCC827, 72 h
# [8] = test system: PC-9; experiment: Inhibition of cell invasion in human PC-9 cells at 0.5 to 1 uM incubated for 24 hrs by wound healing analysis; assay type: functional, cell-based; conditions: dose 0.5-1 µM
# [9] = Oral bioavailability in ICR mouse at 10 mg/kg by LC-MS/MS analysis; assay type: ADME, organism-based; conditions: in vivo
# [10] = test system: PC-9; experiment: Induction of apoptosis in human PC-9 cells at 0.5 to 2 uM incubated for 48 hrs by AnnexinV-FITC/PI staining based flow cytometry; assay type: functional, cell-based; conditions: dose 0.5-2 µM
# [11] = test system: PC-9; experiment: Induction of interaction between RNF149/EGFR mutant in human PC-9 cells assessed as disruption of EGFR mutant/HSP70 complex formation at 2 uM measured after 6 hrs by co-immunoprecipitation analysis; assay type: cell-based
# [12] = test system: E3 ubiquitin-protein ligase RNF149/Epidermal growth factor receptor (Homo sapiens), P00533+Q8NC42 [UNDEFINED MUTATION]; experiment: SiHyT-mediated degrader activity at RNF149/EGFR mutant in human HCC827 cells assessed as induction of EGFR degradation by measuring EGFR expression level at 1 uM incubated for 24 hrs followed by drug wash-out and measured after 24 hrs by western blot analysis; assay type: cell-based
# [13] = Cmax in ICR mouse at 1 mg/kg, iv by LC-MS/MS analysis; assay type: ADME, organism-based; conditions: in vivo
# [14] = test system: E3 ubiquitin-protein ligase RNF149/Epidermal growth factor receptor (Homo sapiens), P00533+Q8NC42 [UNDEFINED MUTATION]; experiment: (§1) SiHyT-mediated degrader activity at RNF149/EGFR mutant in human HCC827 cells assessed as induction of EGFR degradation cells incubated in serum-free media for 8 hrs followed by incubation with compound for 24 hrs by western blot analysis; assay type: cell-based
# [15] = target: E3 ubiquitin-protein ligase RNF149/Epidermal growth factor receptor (Homo sapiens, UniProt P00533+Q8NC42); experiment: as §1; assay type: cell-based
# [16] = AUC in ICR mouse at 1 mg/kg, iv by LC-MS/MS analysis; assay type: ADME, organism-based; conditions: in vivo
# [17] = test system: E3 ubiquitin-protein ligase RNF149/Epidermal growth factor receptor (Homo sapiens), P00533+Q8NC42 [UNDEFINED MUTATION]; experiment: SiHyT-mediated degrader activity at RNF149/EGFR mutant in human HCC827 cells assessed as induction of EGFR degradation by measuring decrease in EGFR level at 1 uM measured after 24 hrs by western blot analysis; assay type: cell-based
# [18] = Half life in ICR mouse at 1 mg/kg, iv by LC-MS/MS analysis; assay type: ADME, organism-based; conditions: in vivo
# [19] = MRT in ICR mouse at 10 mg/kg, po by LC-MS/MS analysis; assay type: ADME, organism-based; conditions: in vivo
# [20] = Toxicity in mouse assessed as pathological changes in heart administered for 14 days by Hematoxylin-Eosin staining based analysis; assay type: tissue-based; conditions: in vivo, 336 h, time 14 day
# [21] = Toxicity in mouse assessed as pathological changes in kidneys administered for 14 days by Hematoxylin-Eosin staining based analysis; conditions: in vivo, 336 h, time 14 day
# [22] = MRT in ICR mouse at 1 mg/kg, iv by LC-MS/MS analysis; assay type: ADME, organism-based; conditions: in vivo
# [23] = test system: BEAS-2B; experiment: Cytotoxicity against human BEAS-2B cells assessed as reduction in cell viability; assay type: toxicity, cell-based
# [24] = test system: HCC827; experiment: Inhibition of cell invasion in human HCC827 cells at 0.25 to 2 uM incubated for 12 hrs by Transwell assay; assay type: functional, cell-based; conditions: dose 0.25-2 µM
# [25] = Half life of the compound in human liver microsomes at 1 uM in presence of NADPH by LC-MS/MS analysis; assay type: ADME, Microsome
# [26] = test system: E3 ubiquitin-protein ligase RNF149/Epidermal growth factor receptor (Homo sapiens), P00533+Q8NC42 [UNDEFINED MUTATION]; experiment: SiHyT-mediated degrader activity at RNF149/EGFR mutant in human HCC827 cells assessed as induction of EGFR degradation by measuring decrease in EGFR expression level at 1 uM pretreated with proteasome inhibitor, MG-132 for 4 hrs followed by incubation with compound for 24 hrs by western blot analysis; assay type: cell-based
# [27] = Tmax in ICR mouse at 10 mg/kg, po by LC-MS/MS analysis; assay type: ADME, organism-based; conditions: in vivo
# [28] = Tmax in ICR mouse at 1 mg/kg, iv by LC-MS/MS analysis; assay type: ADME, organism-based; conditions: in vivo
# [29] = test system: PC-9; experiment: (§2) SiHyT-mediated degrader activity at RNF149/EGFR mutant in human PC-9 cells assessed as induction of EGFR degradation cells incubated in serum-free media for 8 hrs followed by incubation with compound for 24 hrs by western blot analysis; assay type: cell-based
# [30] = as §2; assay type: cell-based
# [31] = test system: E3 ubiquitin-protein ligase RNF149/Epidermal growth factor receptor (Homo sapiens), P00533+Q8NC42 [UNDEFINED MUTATION]; experiment: SiHyT-mediated degrader activity at RNF149/EGFR mutant in human HCC827 cells assessed as induction of EGFR degradation at 1 uM cells incubated in serum-free media for 8 hrs followed by incubation with compound for 24 hrs by western blot analysis; assay type: cell-based
# [32] = Intrinsic clearance of the compound in human liver microsomes at 1 uM in presence of NADPH by LC-MS/MS analysis; assay type: ADME, Microsome; conditions: read-out: CLH
# [33] = test system: PC-9; experiment: SiHyT-mediated degrader activity at RNF149/EGFR mutant in human PC-9 cells assessed as induction of EGFR degradation by measuring EGFR expression level at 2 uM incubated for 24 hrs followed by drug wash-out and measured after 24 hrs by western blot analysis; assay type: cell-based
# [34] = test system: PC-9; experiment: SiHyT-mediated degrader activity at RNF149/EGFR mutant in human PC-9 cells assessed as induction of EGFR degradation by measuring decrease in half-time of EGFR at 2 uM incubated for 6 to 24 hrs in presence of protein synthesis inhibitor, cycloheximide by western blot analysis; assay type: cell-based; conditions: time 6-24 hrs
# [35] = test system: PC-9; experiment: SiHyT-mediated degrader activity at RNF149/EGFR mutant in human PC-9 cells assessed as increase in EGFR ubiquitination level at 2 uM pretreated with MG132 for 2 hrs followed by incubation with compound for 9 hrs by immunoprecipitation based western blot analysis; assay type: cell-based
# [36] = test system: E3 ubiquitin-protein ligase RNF149/Epidermal growth factor receptor (Homo sapiens), P00533+Q8NC42 [UNDEFINED MUTATION]; experiment: SiHyT-mediated degrader activity at RNF149/EGFR mutant in human HCC827 cells assessed as induction of EGFR degradation by measuring decrease in half-time of EGFR at 1 uM incubated for 6 to 24 hrs in presence of protein synthesis inhibitor, cycloheximide by western blot analysis; assay type: cell-based; conditions: time 6-24 hrs
# [37] = Toxicity in mouse assessed as pathological changes in liver administered for 14 days by Hematoxylin-Eosin staining based analysis; assay type: tissue-based; conditions: in vivo, 336 h, time 14 day
# [38] = Half life of the compound in mouse liver microsomes at 1 uM in presence of NADPH by LC-MS/MS analysis; assay type: ADME, Microsome
# Chain of E3 ubiquitin-protein ligase RNF149/Epidermal growth factor receptor (Homo sapiens), P00533+Q8NC42 [UNDEFINED MUTATION] (P00533 whole entry, looked up, stated change not applied): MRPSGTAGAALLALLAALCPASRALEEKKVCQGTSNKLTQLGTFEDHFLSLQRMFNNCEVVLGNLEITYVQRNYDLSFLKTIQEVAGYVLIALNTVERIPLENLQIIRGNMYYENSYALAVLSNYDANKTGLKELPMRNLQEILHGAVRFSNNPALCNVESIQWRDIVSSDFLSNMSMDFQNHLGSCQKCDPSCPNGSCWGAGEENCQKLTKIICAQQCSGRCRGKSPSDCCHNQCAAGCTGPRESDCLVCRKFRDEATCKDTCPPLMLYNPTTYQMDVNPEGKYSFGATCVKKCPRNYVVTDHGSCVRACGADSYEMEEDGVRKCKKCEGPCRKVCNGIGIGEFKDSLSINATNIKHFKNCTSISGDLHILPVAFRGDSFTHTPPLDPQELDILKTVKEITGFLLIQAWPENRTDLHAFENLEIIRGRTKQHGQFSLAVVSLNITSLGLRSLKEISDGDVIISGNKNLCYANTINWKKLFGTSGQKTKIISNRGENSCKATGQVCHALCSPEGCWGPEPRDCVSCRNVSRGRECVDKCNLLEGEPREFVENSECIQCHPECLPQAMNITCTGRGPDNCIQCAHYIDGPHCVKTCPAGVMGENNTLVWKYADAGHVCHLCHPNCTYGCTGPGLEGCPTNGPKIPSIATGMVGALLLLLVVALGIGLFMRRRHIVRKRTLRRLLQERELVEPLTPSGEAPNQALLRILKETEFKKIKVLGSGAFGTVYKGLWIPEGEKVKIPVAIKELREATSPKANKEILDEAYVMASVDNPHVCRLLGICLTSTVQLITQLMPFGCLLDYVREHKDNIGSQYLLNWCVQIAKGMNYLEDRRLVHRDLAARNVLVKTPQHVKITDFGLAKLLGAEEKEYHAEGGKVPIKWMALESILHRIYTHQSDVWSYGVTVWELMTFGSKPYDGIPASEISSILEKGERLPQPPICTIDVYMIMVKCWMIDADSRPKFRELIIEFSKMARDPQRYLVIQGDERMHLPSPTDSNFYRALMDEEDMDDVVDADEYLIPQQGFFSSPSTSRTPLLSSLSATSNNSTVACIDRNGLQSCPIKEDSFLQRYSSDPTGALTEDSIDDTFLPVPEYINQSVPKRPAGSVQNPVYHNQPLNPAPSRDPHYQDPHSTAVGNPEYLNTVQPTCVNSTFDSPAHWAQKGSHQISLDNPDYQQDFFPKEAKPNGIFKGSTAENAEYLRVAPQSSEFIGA
# Chain of E3 ubiquitin-protein ligase RNF149/Epidermal growth factor receptor (Homo sapiens), P00533+Q8NC42 [UNDEFINED MUTATION] (Q8NC42 whole entry, looked up, stated change not applied): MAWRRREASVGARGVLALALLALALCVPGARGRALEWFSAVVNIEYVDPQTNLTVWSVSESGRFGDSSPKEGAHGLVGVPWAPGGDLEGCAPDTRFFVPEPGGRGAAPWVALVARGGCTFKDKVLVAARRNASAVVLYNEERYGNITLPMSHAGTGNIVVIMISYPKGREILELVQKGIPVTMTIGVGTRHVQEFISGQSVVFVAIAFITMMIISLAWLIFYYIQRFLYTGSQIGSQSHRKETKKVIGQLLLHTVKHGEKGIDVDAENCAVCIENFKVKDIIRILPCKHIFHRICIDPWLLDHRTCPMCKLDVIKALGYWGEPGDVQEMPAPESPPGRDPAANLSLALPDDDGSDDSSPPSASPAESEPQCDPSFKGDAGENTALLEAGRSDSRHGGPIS
# Chain of E3 ubiquitin-protein ligase RNF149/Epidermal growth factor receptor (P00533 whole entry, looked up, change not shown): as the sequence (P00533 whole entry, looked up, stated change not applied) above
# Chain of E3 ubiquitin-protein ligase RNF149/Epidermal growth factor receptor (Q8NC42 whole entry, looked up, change not shown): as the sequence (Q8NC42 whole entry, looked up, stated change not applied) above
structure (smiles),measurement,setting,value
COc1cc2ncnc(Nc3ccc(F)c(Cl)c3)c2cc1OCCn1cc(CCCO[Si](c2ccccc2)(c2ccccc2)C(C)(C)C)nn1,Activity,[1],Active
same,Activity,[2],Active
same,half-life,[3],1.29 h
same,Cmax,[4],683 ng/mL
same,Activity,[5],Active
same,Activity,[6],Toxic
same,IC50,[7],70 nM
same,inhibition,[8],Active
same,bioavailability,[9],8.67%
same,Activity,[10],Dose-dependent-effect
same,Activity,[11],inactive
same,Activity,[12],inactive
same,Cmax,[13],2210 ng/mL
same,Activity,[14],Dose-dependent-effect
same,DC50,[15],750 nM
same,AUC,[16],2164.76 ng·mL·h
same,Activity,[17],Active
same,half-life,[18],2.18 h
same,MRT,[19],2.57 h
same,Activity,[20],Non-toxic
same,Activity,[21],Non-toxic
same,MRT,[22],2.72 h
same,Activity,[23],Toxic
same,inhibition,[24],Active
same,half-life at 1 µM,[25],> 1 h
same,Activity,[26],inactive
same,Tmax,[27],1 h
same,Tmax,[28],4.8 min
same,Activity,[29],Dose-dependent-effect
same,DC50,[30],1420 nM
same,Activity,[31],87.2%
same,CLint scaled at 1 µM,[32],9.3 mL/min/kg
same,Activity,[33],inactive
same,Activity,[34],Active
same,Activity,[35],Active
same,Activity,[36],Active
same,Activity,[37],Non-toxic
same,half-life at 1 µM,[38],> 1 h
